The values below come from article PMC10974622, “Hybrid Peptide-Alkoxyamine Drugs: A Strategy for the Development of a New Family of Antiplasmodial Drugs” (Molecules, 2024).

Structures are written as SMILES. *1 amine or outer side, *2 acyl side, *3 side chain or, on linkers, in order; H or OH if unused. Where a SMILES comes first, the peptide text is derived from it. [ ]: non-standard residue; d: D form. The star is where a group is joined. Suc = O=C(CCC(=O)[*:2])[*:1]; Boc = CC(C)(C)OC(=O)*; OBn = c1ccc(CO*)cc1 A value given as a limit tells only on which side of the number the result lay.

One data set deals with Vero cells.
Test: not given
The note with it: cited from earlier work.
As a reminder, the CC50 is the concentration giving 50% cytotoxicity. As to `CC(ON1C(C)(C)CCCC1(C)C)c1ccc(NC(=O)[C@H](Cc2ccccc2)NC(=O)[C@@H](NC(=O)[C@H](Cc2ccccc2)NC(=O)CCC(=O)OCc2ccccc2)C(C)C)cc1` (some centres unmarked) [A6L], the CC50 was greater than 50 µM.

Consider `CC(C)[C@H](NC(=O)[C@H](Cc1ccccc1)NC(=O)OC(C)(C)C)C(=O)N[C@@H](Cc1ccccc1)C(=O)O` [P7L, Boc-L-Phe-L-Val-L-Phe–OH] (Boc-Phe-Val-Phe-OH), for which the 50% cytotoxic concentration (CC50) is greater than 50 µM.

For the compound `CC(C)[C@H](NC(=O)[C@H](Cc1ccccc1)NC(=O)CCC(=O)O)C(=O)N[C@@H](Cc1ccccc1)C(=O)O` [P10L] (Suc-Phe-Val-Phe-OH), the cytotoxic concentration (CC50) was greater than 50 µM.

The test system of the next data set is P. falciparum strain F32-ART (artemisinin-resistant). Put plainly: microbe, parasite or virus in culture. The note with it: Plasmodium falciparum, F32, read-out: Antiplasmodial Activity IC50, strain F32-ART, SYBR Green assay, mean ± SEM of 3 to 6 experiments. It is filed as cell-based, Plasmodium falciparum. An excerpt: The antimalarial activity of peptide-alkoxyamine hybrids was first evaluated in the in vitro antiproliferative test (IC50) using the artemisinin-resistant strain F32-ART (Table 2, Table S1). The roles of the N-substitution of the alkoxyamine moiety (TEMPO- or DBNO-based, for example, A3L/A8L, line 1/line 10), of the configuration (L or D of the peptide, A3L/A3D, line 1/line 2), of the N-protection of the peptide (A3L/A4L or A5L, line 1/ lines 3 and 5) were examined. According to standard rules in the malaria field, only molecules having IC50 values below 1 μM were considered active.
The F32-ART (artemisinin-resistant) strain and the F32-TEM (artemisinin-sensitive strain) were cultured according to Trager and Jensen in RPMI 1640 medium (Fisher Scientific, Illkirch, France) supplemented with 5% human serum (Etablissement français du Sang, Toulouse, France) at 2% hematocrit with type O human blood (Etablissement français du Sang, Toulouse, France), 37 °C, and 5% CO2 in a humidified atmosphere.
(§1) IC50 values corresponding to 50% inhibition of P. falciparum growth were determined by SYBR Green assay, and the assessment of cytotoxicity was performed on Vero cells (cell line from the kidney of a normal adult African green monkey), as previously published. The selectivity index corresponded to the cytotoxicity/activity ratio.
Usually IC50 stands for the concentration needed to halve the response being measured. On to `CC(ON1C(C)(C)CCCC1(C)C)c1ccc(NC(=O)[C@@H](Cc2ccccc2)NC(=O)[C@H](NC(=O)[C@@H](Cc2ccccc2)NC(=O)OC(C)(C)C)C(C)C)cc1` (some centres unmarked) [A3D], for which the 50% inhibitory concentration (IC50) is greater than 50 µM.

Take `CC(ON1C(C)(C)CCCC1(C)C)c1ccc(NC(=O)[C@H](Cc2ccccc2)NC(=O)[C@@H](NC(=O)[C@H](Cc2ccccc2)NC(=O)CCC(=O)OCc2ccccc2)C(C)C)cc1` (some centres unmarked) [A6L]: the IC50 is 7 µM.

For `C[C@@H]1CC[C@H]2[C@@H](C)C(=O)O[C@@H]3O[C@@]4(C)CC[C@@H]1[C@]32OO4` [ART, Artemisinin, reference compound], the IC50 was found to be 0.031 ± 0.006 µM.

For `CC(ON(C(C)(C)C)C(C)(C)C)c1ccc(NC(=O)[C@@H](Cc2ccccc2)NC(=O)[C@H](NC(=O)[C@H](N)Cc2ccccc2)C(C)C)cc1` (some centres unmarked) [AW230], the half-maximal inhibitory concentration (IC50) was determined as 3.73 ± 0.26 µM.

`CC(ON1C(C)(C)CCCC1(C)C)c1ccccc1` (centres unmarked) [compound 4, reference compound]: the half-maximal inhibitory concentration (IC50) is greater than 10 µM.

Still in this data set, the particulars now being: cytotoxicity (Vero cells)/antiplasmodial activity (F32-ART) ratio.
For the compound `CC(ON1C(C)(C)CCCC1(C)C)c1ccc(NC(=O)[C@@H](Cc2ccccc2)NC(=O)[C@H](NC(=O)[C@H](N)Cc2ccccc2)C(C)C)cc1` (some centres unmarked) [A5D], the “Selectivity Index CC50/IC50” value is listed as 1.0.

For `CC(ON1C(C)(C)CCCC1(C)C)c1ccc(NC(=O)[C@H](Cc2ccccc2)NC(=O)[C@@H](NC(=O)[C@H](Cc2ccccc2)NC(=O)CCC(=O)OCc2ccccc2)C(C)C)cc1` (some centres unmarked) [A6L], the “Selectivity Index CC50/IC50” value was greater than 6.9.

Consider `C[C@@H]1CC[C@H]2[C@@H](C)C(=O)O[C@@H]3O[C@@]4(C)CC[C@@H]1[C@]32OO4` [ART, Artemisinin, reference compound], for which the “Selectivity Index CC50/IC50” value is greater than 1500.

Still in this data set, the particulars now being: read-out: Antiplasmodial Activity IC50; strain F32-ART, SYBR Green assay, mean ± SEM of 3 to 6 experiments.
Regarding `CC(ON1C(C)(C)CCCC1(C)C)c1ccc(NC(=O)[C@@H](Cc2ccccc2)NC(=O)[C@H](NC(=O)[C@H](N)Cc2ccccc2)C(C)C)cc1` (some centres unmarked) [A5D], the IC50 stood at 2.25 ± 0.17 µM.

For the compound `CC(ON1C(C)(C)CCCC1(C)C)c1ccc(NC(=O)[C@H](Cc2ccccc2)NC(=O)[C@@H](NC(=O)[C@H](Cc2ccccc2)NC(=O)CCC(=O)OCc2ccccc2)C(C)C)cc1` (some centres unmarked) [A6L], the IC50 is 7.2 µM.

Still in this data set, the particulars now being: strain F32-ART, SYBR Green assay, mean ± SEM of 3 to 6 experiments; read-out: Antiplasmodial Activity IC50.
For `CC(C)[C@@H](NC(=O)[C@@H](Cc1ccccc1)NC(=O)OC(C)(C)C)C(=O)N[C@H](Cc1ccccc1)C(=O)OCc1ccccc1` [P6D, Boc-D-Phe-D-Val-D-Phe–OBn] (Boc-[dF]-[dV]-[dF]-OBn), the IC50 was greater than 50 µM.

With `CC(C)[C@H](NC(=O)[C@H](Cc1ccccc1)NC(=O)OC(C)(C)C)C(=O)N[C@@H](Cc1ccccc1)C(=O)OCc1ccccc1` [P6L] (Boc-Phe-Val-Phe-OBn), the IC50 is greater than 50 µM.

In the case of `CC(C)[C@@H](NC(=O)[C@@H](Cc1ccccc1)NC(=O)OC(C)(C)C)C(=O)N[C@H](Cc1ccccc1)C(=O)O` [P7D] (Boc-[dF]-[dV]-[dF]-OH), the 50% inhibitory concentration (IC50) is greater than 10 µM.

As to `CC(C)[C@H](NC(=O)[C@H](Cc1ccccc1)NC(=O)OC(C)(C)C)C(=O)N[C@@H](Cc1ccccc1)C(=O)O` [P7L, Boc-L-Phe-L-Val-L-Phe–OH] (Boc-Phe-Val-Phe-OH), the IC50 is greater than 50 µM.

With `CC(C)[C@@H](NC(=O)[C@H](N)Cc1ccccc1)C(=O)N[C@H](Cc1ccccc1)C(=O)OCc1ccccc1` [P8D] (H-[dF]-[dV]-[dF]-OBn), the IC50 was greater than 50 µM.

As to `CC(C)[C@H](NC(=O)[C@@H](N)Cc1ccccc1)C(=O)N[C@@H](Cc1ccccc1)C(=O)OCc1ccccc1` [P8L] (H-Phe-Val-Phe-OBn), the half-inhibitory concentration (IC50) was greater than 50 µM.

On to `CC(C)[C@H](NC(=O)[C@H](Cc1ccccc1)NC(=O)CCC(=O)OCc1ccccc1)C(=O)N[C@@H](Cc1ccccc1)C(=O)OCc1ccccc1` [P9L, N-(Bn)succinyl-L-Phe-L-Val-L-Phe–OBn], for which the IC50 was greater than 50 µM.

On to `CC(C)[C@H](NC(=O)[C@H](Cc1ccccc1)NC(=O)CCC(=O)O)C(=O)N[C@@H](Cc1ccccc1)C(=O)O` [P10L] (Suc-Phe-Val-Phe-OH), for which the IC50 was greater than 50 µM.

System in a further data set: not listed separately
Put plainly: in vitro. It is filed as cell-based, African green monkey. The note with it: African green monkey, Cytotoxicity CC50. How it is done:
as §1
In turn, `CC(ON1C(C)(C)CCCC1(C)C)c1ccc(NC(=O)[C@@H](Cc2ccccc2)NC(=O)[C@H](NC(=O)[C@@H](Cc2ccccc2)NC(=O)OC(C)(C)C)C(C)C)cc1` (some centres unmarked) [A3D] gave a cytotoxic concentration (CC50) greater than 50 µM.

Consider `C[C@@H]1CC[C@H]2[C@@H](C)C(=O)O[C@@H]3O[C@@]4(C)CC[C@@H]1[C@]32OO4` [ART, Artemisinin, reference compound], for which the 50% cytotoxic concentration (CC50) is greater than 50 µM.

Compound `CC(ON(C(C)(C)C)C(C)(C)C)c1ccc(NC(=O)[C@@H](Cc2ccccc2)NC(=O)[C@H](NC(=O)[C@H](N)Cc2ccccc2)C(C)C)cc1` (some centres unmarked) [AW230] returned a half-maximal cytotoxic concentration (CC50) of 9 ± 1.2 µM.

For the compound `CC(C)[C@@H](NC(=O)[C@@H](Cc1ccccc1)NC(=O)OC(C)(C)C)C(=O)N[C@H](Cc1ccccc1)C(=O)OCc1ccccc1` [P6D, Boc-D-Phe-D-Val-D-Phe–OBn] (Boc-[dF]-[dV]-[dF]-OBn), the midpoint of cytotoxicity, the CC50, lay at 3.2 ± 0.2 µM.

In turn, `CC(C)[C@H](NC(=O)[C@H](Cc1ccccc1)NC(=O)OC(C)(C)C)C(=O)N[C@@H](Cc1ccccc1)C(=O)OCc1ccccc1` [P6L] (Boc-Phe-Val-Phe-OBn) gave a CC50 greater than 50 µM.

On to `CC(C)[C@@H](NC(=O)[C@@H](Cc1ccccc1)NC(=O)OC(C)(C)C)C(=O)N[C@H](Cc1ccccc1)C(=O)O` [P7D] (Boc-[dF]-[dV]-[dF]-OH), for which the half-maximal cytotoxic concentration (CC50) was greater than 50 µM.

Turning to `CC(C)[C@@H](NC(=O)[C@H](N)Cc1ccccc1)C(=O)N[C@H](Cc1ccccc1)C(=O)OCc1ccccc1` [P8D] (H-[dF]-[dV]-[dF]-OBn), the CC50 was greater than 50 µM.

For `CC(C)[C@H](NC(=O)[C@@H](N)Cc1ccccc1)C(=O)N[C@@H](Cc1ccccc1)C(=O)OCc1ccccc1` [P8L] (H-Phe-Val-Phe-OBn), the CC50 is greater than 50 µM.

For the compound `CC(C)[C@H](NC(=O)[C@H](Cc1ccccc1)NC(=O)CCC(=O)OCc1ccccc1)C(=O)N[C@@H](Cc1ccccc1)C(=O)OCc1ccccc1` [P9L, N-(Bn)succinyl-L-Phe-L-Val-L-Phe–OBn], the CC50 is greater than 50 µM.

Take `CC(C)[C@@H](NC(=O)[C@H](N)Cc1ccccc1)C(=O)N[C@H](Cc1ccccc1)C(=O)O` [P11D] (H-[dF]-[dV]-[dF]-OH; N-terminus and C-terminus assumed): the CC50 is greater than 50 µM.

Still in this data set, the particulars now being: Cytotoxicity CC50.
`CCc1ccc(NC(=O)[C@@H](Cc2ccccc2)NC(=O)[C@H](NC(=O)[C@H](N)Cc2ccccc2)C(C)C)cc1` [P22D] returned a CC50 of 11 ± 1.6 µM.
